Assay results: patent US20150283145A1, “TREATMENT OF HYPERPROLIFERATIVE AND PRE-CANCEROUS SKIN DISEASES USING AN INHIBITOR OF CBP/CATENIN” (PRISM Pharma Co., Ltd., priority 2012, published 2015)

How the values were obtained:
[1] = tested on: psoriasis tissue model (SOR-300-FT); assay: Tissue structure (H&E histology) of psoriasis tissue model; assay type: cell-based, human
Source text: (§1) The psoriasis tissue model (SOR-300-FT; MatTek Corp., Ashland, Mass.) is a highly differentiated in vitro psoriatic tissue comprised of normal, human-derived keratinocytes and psoriatic fibroblasts which have been cultured to form a highly differentiated model of psoriatic tissue. Morphologically, the psoriatic tissue is of uniform thickness and is very similar to native psoriatic tissue in that it expresses increased levels of Ki67+ cells (hyperproliferation) and psoriasis-associated proteins such as psoriasin, elafin and human beta-defensin-2 (HBD-2) (Am. J. Pathol. 173:815-23, 2008). SOR-300-FT tissues (surface area=0.6 cm^2) were cultured on microporous membrane (pore size=0.4 μm) cell culture inserts. All psoriatic tissues were grown at the air liquid interface (ALI) in which the apical tissue layer is exposed to air. Use of the ALI induces the tissues to attain skin-like differentiation and allows direct topical application of test materials (similar to in vivo exposure).
(§2) Calcipotriol at 2.5, 0.25 and 0.025 μg/ml in medium was used as positive control. Ultrapure water was used as the vehicle control. The test article Compound C was applied to the basolateral (by additions to the culture medium) and apical (50 μl) side of the tissues. The effect of each three concentrations of the test article on tissue structure was examined using H&E stained histological slides. For gene analysis, RNA was isolated using standard RNA isolation protocol (MatTek Corporation). Isolated RNA was quantified and the integrity of the isolated RNA was checked. Quantitative RT-PCR was performed to determine expression levels of 5 psoriatic associated genes (elafin, HBD-2, psoriasin, p63, and Ki67).
(§3) SOR-300-FT™ tissues were transferred to 6-well plates containing 0.9 ml of pre-warmed assay medium and equilibrated to standard culture conditions (37° C., 5% CO2) for 1 hour. After the 1 hr equilibration, the tissues were re-fed with fresh medium as follow: 1) for the 24 hr time point, tissues were feed with 0.9 ml of medium and 2) for time points >24 hr, tissues were fed with 5 ml of culture medium by placing the cell culture inserts on top of the washers (Part # EPI-WSHR, MatTek Corporation). Next, 50 μl of the test article was applied topically to the psoriatic tissues (n=3) and the test article was added to the culture medium at concentrations of 100 μM, 30 μM, and 5 μM. At times 48 and 72 hours: a) the tissues were rinsed topically 3× with 300-400 μL of PBS, b) the inserts containing the tissues were held tightly with sterile forceps and the test article was rinsed gently by immersing the insert into PBS and decant medium from insert and c) fresh test article was re-applied to the tissue immediately after rinsing and decanting (50 μl, topically). Analysis was performed at t=48 hr (2× repeat applications) and t=96 hr (4× applications).
(§4) After t=48 (2× repeat exposure) and t=96 hr (4× exposure), N=3 tissues/treatment were used for RNA isolation for biomarker identification (gene expression levels). After the t=48 and t=96 hr, N=1 tissue/treatment was fixed in 10% formalin for histological analysis.
Microscopic observations of histology samples were performed and effect of treatment on tissue morphology such as apical surface disruption, structural changes, and abnormal tissue staining was assessed.

Ki67 gene expression = assay: qPCR Ki67 gene expression in psoriatic tissue model; assay type: cell-based, human; conditions: for Downregulation of Ki67 gene: 2× or 4× repeat applications
Source text: as §1, §2
as §3, with “applications). […]” for “applications).”
(§5) RNA Isolation: RNA was isolated from the tissues following MatTek's standardized RNA isolation protocol. The concentration, integrity, and purity of RNA was assessed using Experion System (Bio-Rad).
qPCR: cDNA was generated using the RT2 First Strand Kit (Qiagen, cat#330401). Relative gene expression was measured using RT2 SYBR Green qPCR Mastermix (Qiagen, cat#330502) and Qiagen RT2 primers. […]
(§6) qPCR was performed to quantify the relative gene expression levels of 5 psoriatic associated gene biomarkers: 1) human beta defensin 2 (HBD-2), 2) psoriasin, 3) elafin and 4) p63, and 5) Ki67.

elafin gene expression = assay: qPCR elafin gene expression in psoriatic tissue model; assay type: cell-based, human
Source text: as §1, §2, §3, §4, §5
(§7) qPCR: cDNA was generated using the RT2 First Strand Kit (Qiagen, cat#330401). Relative gene expression was measured using RT2 SYBR Green qPCR Mastermix (Qiagen, cat#330502) and Qiagen RT2 primers. Analysis was carried out using Bio-Rad CFX software.
as §6

[2] = tested on: human beta defensin 2 (HBD-2) gene expression; assay: qPCR HBD-2 gene expression in psoriatic tissue model; assay type: cell-based
Source text: as §1, §2, §3, §4, §5, §7, §6

[3] = tested on: psoriasin gene expression; assay: qPCR psoriasin gene expression in psoriatic tissue model; assay type: cell-based, human
Source text: as §1, §2, §3, §4, §5, §7, §6

p63 gene expression = assay: qPCR p63 gene expression in psoriatic tissue model; assay type: cell-based, human; conditions: for Downregulation of p63 gene: 2× or 4× repeat applications
Source text: as §1, §2, §3, §4, §5, §7, §6

[4] = 2.5 μg/ml, 2× repeat applications
[5] = 2.5 μg/ml, 4× repeat applications
[6] = 0.025 ug/ml, 2× repeat applications
[7] = 0.025 ug/ml, 4× repeat applications
[8] = 0.25 ug/ml, 2× application, 48 hr

SMILES: C=C1/C(=C\C=C2/CCC[C@]3(C)[C@@H]([C@H](C)/C=C/[C@@H](O)C4CC4)CC[C@@H]23)C[C@@H](O)C[C@@H]1O [Calcipotriol, reference compound]
- Microscopic observation of tissue histology ([1]; 2.5, 0.25 and 0.025 μg/ml, 2× or 4× repeat exposures): minimal-to-no evidence of structural damage
- Downregulation of Ki 67 gene expression (Ki67 gene expression; [4]): ≥ 2 fold
- Decrease of Ki67 gene expression (Ki67 gene expression; [5]): 1.6 fold
- Downregulation (≧2 fold) of elafin gene expression (elafin gene expression; [6]): not after 2× repeat applications
- Downregulation of elafin gene expression (elafin gene expression; [7]): ≥ 2 fold
- Downregulation of elafin gene expression (elafin gene expression; [4]): ≥ 2 fold
- Reduction of elafin gene expression (elafin gene expression; [5]): significant reduction
- Downregulation (≧2 fold) of HBD-2 gene expression [2, 6]: not after 2× repeat applications
- Downregulation of HBD-2 gene expression [2, 7]: ≥ 2 fold
- Downregulation of HBD2 gene expression [2, 8]: ≥ 2 fold
- Downregulation of HBD-2 gene expression [2, 4]: ≥ 2 fold
- Reduction of HBD-2 gene expression [2, 5]: significant reduction
- Downregulation (≧2 fold) of psoriasin gene expression [3, 6]: not after 2× repeat applications
- Downregulation of psoriasin gene expression [3, 7]: ≥ 2 fold
- Downregulation of psoriasin gene expression [3, 4]: ≥ 2 fold
- Reduction of psoriasin gene expression [3, 5]: significant reduction
- Downregulation of p63 gene expression (p63 gene expression; [8]): ≥ 2 fold
- Downregulation of p63 gene expression (p63 gene expression; [4]): ≥ 2 fold
- Decrease of p63 gene expression (p63 gene expression; [5]): 1.7 fold

SMILES: C[C@H]1[C@H]2N(C(=O)CN(C)N2C(=O)NCc2ccccc2)[C@@H](Cc2ccc(O)cc2)C(=O)N1Cc1cccc2cccnc12 [Compound C, (6S,9S,9aS)—N-benzyl-6-(4-hydroxybenzyl)-2,9-dimethyl-4,7-dioxo-8-(quinolin-8-ylmethyl)octahydro-1H-pyrazino[2,1-c][1,2,4]triazine-1-carboxamide]
- Microscopic observation of tissue histology ([1]; 5 μM, 2× repeat exposures): minimal effect on tissue structure
- Basal cells and tissue regeneration (histology) ([1]; 5 μM, 4× repeat exposures): the basal cells were intact and tissue regeneration was occurring
- Microscopic observation of tissue histology ([1]; 5 μM, 4× repeat exposures): the parabasal-apical layer of the tissue was sloughed off
- Microscopic observation of tissue histology ([1]; 30 μM, 2× repeat exposures, 48 hr): minor structural damage
- Microscopic observation of tissue histology ([1]; 30 μM, 4× exposures, 96 hr): the suprabasal and apical layer was sloughed off
- Microscopic observation of tissue histology ([1]; 100 μM, 2× or 4× repeat exposures): structural damage to the differentiated cell layer
- Downregulation of Ki67 gene (Ki67 gene expression; 5 μM): did not show downregulation
- Downregulation of Ki67 gene (Ki67 gene expression; 30 μM): did not show downregulation
- Downregulation of Ki 67 gene expression (Ki67 gene expression; 100 μM, 2× and 4× applications (FIGS. 4A-B)): No down regulation
- Downregulation of elafin gene expression (elafin gene expression; 5 μM, 4× applications, 96 hr): ≥ 2 fold
- Downregulation of elafin gene expression (elafin gene expression; 30 μM, 4× applications, 96 hr): ≥ 2 fold
- Reduction in elafin gene expression level (elafin gene expression; 30 μM, 48 hr (2× applications)): 2.2 fold
- Downregulation of elafin gene expression (elafin gene expression; 100 μM, 4× applications, 96 hr): ≥ 2 fold
- Downregulation of HBD-2 gene expression ([2]; 5 μM, 4× applications, 96 hr): ≥ 2 fold
- Downregulation of HBD-2 gene expression ([2]; 30 μM, 4× applications, 96 hr): ≥ 2 fold
- Downregulation of HBD-2 gene expression ([2]; 100 μM, 4× applications, 96 hr): ≥ 2 fold
- Downregulation of psoriasin gene expression ([3]; 5 μM, 4× applications, 96 hr): ≥ 2 fold
- Downregulation of psoriasin gene expression ([3]; 30 μM, 4× applications, 96 hr): ≥ 2 fold
- Downregulation of psoriasin gene expression ([3]; 100 μM, 4× applications, 96 hr): ≥ 2 fold
- Downregulation of p63 gene (p63 gene expression; 5 μM): did not show downregulation
- Downregulation of p63 gene (p63 gene expression; 30 μM): did not show downregulation
- Downregulation of the p63 gene (p63 gene expression; 100 μM, 2× repeat applications): 1.6 fold
